Results from US5767120A, “Tricyclic derivatives, compositions and methods of use” (Schering Corporation, priority 1995, dated 1998).

Key:
[1] = Inhibition of LPS/Galactosaimine-Induced Lethality (septic shock); format: in vivo, Mice (C57BI/6J males); settings: 25 mg/kg orally or i.p. one hour before LPS (100 ng) and d-galactosamine (8 mg) i.p.; survival 24 hours after challenge
Experimental: This test procedure is a standard test used to determine activity against septic shock.
3. In Vivo Study: Inhibition of LPS/Galactosaimine-Induced Lethality
1) Mice (C57BI/6J males, 6-8 weeks of age) are dosed with the indicated compound (dissolved in CMC suspension vehicle; compounds are given orally or i.p. one hour before challenge with LPS and d-galactosamine).
2) Mice are challenged i.p. with a mixture of LPS (from E. coli 0111:B4; 100 ng) and d-galactosamine (8 mg).
3) Survival is determined 24 hours after challenge. See procedure published in J. Exp. Med. 165:657 (1987)

TNF-α = assay: Inhibition of LPS-Induced TNF-α Production From the Murine Cell Line WEHI-265; format: cell-based; settings: Mus musculus, WEHI-265 cells, 20-24 hours
Experimental: This test procedure is a standard test used to determine anti-TNF-α activity and to evaluate the usefulness of said compounds for counteracting the biological effects of TNF-α.
1. In Vitro Study: Inhibition of LPS-Induced TNF-α Production From the Murine Cell Line WEHI-265
1) Cells (obtained from cell cultures containing ≤10^6 cells/ml) are suspended at 0.2×10^6 cells/ml in complete medium (RPMI1640, with 10% FCS, 10^-5 M 2-ME, 2 mM glutamine and 10 mM HEPES buffer) and plated in CoStar 24 well plates (1.0 ml/well).
2) Compounds are dissolved in the appropriate vehicle at 400 times the concentration to be tested, and 5 μl of compound is added to the wells.
3) LPS (from E. coli 0111:B4) is diluted to 6 μg/ml and 1.0 ml is added to wells.
4) Plates are incubated 20-24 hours in 37° CO02 incubator.
5) Supernatant fluids are collected and analyzed for TNF content as described in J. ImmunoL, 142:3884.

serum TNF = assay: Inhibition of LPS-Induced Serum TNF; format: in vivo, Mice (C57BI/6J males); settings: Mus musculus, 1.5 h; 25 mg/kg orally or i.p. one hour before LPS (50 μg i.p.); serum 90 min after LPS; values may be subject to a wide margin of error
Experimental: In addition to the in vitro test described above, the following in vivo test was also performed on several of the compounds of the present invention.
2. In Vivo Study: Inhibition of LPS-Induced Serum TNF
1) Mice (C57BI/6J males, 6-8 weeks of age) are dosed with the indicated compound (dissolved in CMC suspension vehicle; compounds are given orally or i.p. one hour before LPS challenge).
3) Mice are bled 90 min after LPS challenge.
4) Sera are analyzed for TNF content by ELISA as described in J. Immunol.

| SMILES | # dead/total at 25 mg/kg [1] | inhibition at 10 µM (TNF-α) [%] | inhibition in vivo at 25 mg/kg (serum TNF) [%] |
| --- | --- | --- | --- |
| CCOC1(CCN(C)C)c2ccccc2CCc2ccccc21 [Compound IA, 5-ethoxy-5-dimethylaminoethyl-10,11-dihydro-5H-dibenzo[a,d]cycloheptene] | 0/8 | 51 | 69 |
| CCCC1(CCN(C)C)c2ccccc2CCc2ccccc21 [Compound IC, 10,11-dihydro-N,N-dimethyl-5-propyl-5H-dibenzo[a,d]cycloheptene-5-(2-ethanamine)] | 1/9 | 60 | 65 |
| C=CCC1(CCN(C)C(=O)OCC)c2ccccc2CCc2ccccc21 [Compound ICC] |  | 42 |  |
| C=CCC1(CCN(C)C)c2ccccc2CCc2ccccc21 [Compound IE, 10,11-dihydro-N,N-dimethyl-5-(2-propenyl)-5H-dibenzo[a,d]cycloheptene-5-(2-ethanamine)] | 0/9 | 67 | 48 |
| CCCC1(CCCN(C)C)c2ccccc2CCc2ccccc21 [Compound IG, 10,11-dihydro-N,N-dimethyl5-propyl-5H-dibenzo[a,d]cycloheptenep] |  | 60 |  |
| CCOC1(CCN(C)C(=O)c2ccc(C(=O)O)cc2)c2ccccc2CCc2ccccc21 [Compound IGG, 4-[[N-[2-[5-ethoxy-10,11-dihydro-5H-dibenzo[a,d]cyclohepten-5-yl]ethyl]-N-methyl]oxo]benzoic acid] | 10/10 | 4 | 0 |
| CCCC1(CN)c2ccccc2CCc2ccccc21 [Compound IH, 10,11-dihydro-5-propyl-5H-dibenzo[a,d]cycloheptene-5-methanamine] |  | 77 |  |
| CCOC1(CCN2Cc3ccccc3C2)c2ccccc2CCc2ccccc21 [Compound IL, 2-[2-[5-ethoxy-10,11-dihyd] |  | 53 |  |
| CCOC1(CCN2CCCC2)c2ccccc2COc2ccccc21 (centres unmarked) [Compound IM, 1-[2-(11-ethoxy-6,11-dihydrodibenz[b,e]oxepin-11-yl)ethyl]pyrrolidine] | 1/8 | 54 | 58 |
| CCOC1(CCN(C)S(C)(=O)=O)c2ccccc2CCc2ccccc21 [Compound IN, N-[2-(5-ethoxy-10,11-dihydro-5H-dibenzo[a,d]cycloheptenyl)ethyl]-N-methyl-methanesulfonamide] | 6/9 | 19 |  |
| CCCC1(CN(C)C)c2ccccc2CCc2ccccc21 [Compound ISS, 10,11-dihydro-N,N-dimethyl-5-propyl-5H-dibenzo[a,d]cyclohepten-5-methanamine] |  | 67 |  |
| CCOC1(CCN(C)C)c2ccccc2CCc2ccc(Cl)cc21 (centres unmarked) [Compound IS] | 3/10 |  |  |
| C=CCC1(CC=NO)c2ccccc2CCc2ccccc21 [Compound IUU, 2-[10,11-dihydro. 5-(2-propenyl)-5H-dibenzo[a,d]cyclohepten-5-yl]-ethanone oxime] |  | 29 |  |
| CCOC1(CCNC)c2ccccc2COc2ccccc21 (centres unmarked) [Compound IU] | 8/9 | 25 | 21 |
| C=CCC1(CCN2CCCC2C(=O)O)c2ccccc2CCc2ccccc21 (centres unmarked) [Compound IVV, 1-[2-[10,11-dihydro-5-(2propenyl)-5H-dibenzo[a,d]cyclohepten-5-yl]ethyl]-2-pyrrolidinecarboxylic acid] |  | 14 |  |
| CCOC(=O)N(C)CCC1(OCC)c2ccccc2CCc2ccccc21 [Compound IV] |  | 34 |  |
| C=CCC1(CCNC)c2ccccc2CCc2ccccc21 [IAA] | 5/10 | 56 | 38 |
| CCOCC1(CCNC)c2ccccc2CCc2ccccc21 [IBB] | 10/10 | 45 | 34 |
| CCOC1(CCN(C)C)c2ccccc2COc2ccccc21 (centres unmarked) [IB] | 0/9 | 33 | 70 |
| CCCC1(CCNC)c2ccccc2CCc2ccccc21 [IDD] | 9/10 | 59 | 31 |
| CCCC1(CCN(C)C)c2ccccc2COc2ccccc21 (centres unmarked) [ID] |  | 62 | 67 |
| CCOCC1(CCN(C)C)c2ccccc2CCc2ccccc21 [IEE] | 8/10 | 23 | 38 |
| CCOC1(CCN(C)C(=O)c2ccc(C(=O)OC)cc2)c2ccccc2CCc2ccccc21 [IFF] | 9/9 | 44 | 0 |

| SMILES | # dead/total at 25 mg/kg [1] | inhibition at 10 µM (TNF-α) [%] | inhibition in vivo at 25 mg/kg (serum TNF) [%] |
| --- | --- | --- | --- |
| CN(C)CCC1(CC2CC2)c2ccccc2CCc2ccccc21 [IF] |  | 68 | 34 |
| CCOC(=O)CN(C)CCC1(OCC)c2ccccc2CCc2ccccc21 [IHH] |  | 40 |  |
| CCOC1(CCN(C)CCOCCO)c2ccccc2CCc2ccccc21 [IJJ] |  | 53 |  |
| CCOC1(CCN(C)C(C)=O)c2ccccc2CCc2ccccc21 [IJ] | 8/8 | 48 |  |
| CCOC1(CCN(C)CC(=O)O)c2ccccc2CCc2ccccc21 [IKK] |  | 13 |  |
| CCOC1(CCNC)c2ccccc2CCc2ccccc21 [IK] | 0/9 | 60 | 40 |
| C=CCC1(CCNC)c2ccccc2COc2ccccc21 (centres unmarked) [ILL] | 3/10 | 50 | 44 |
| C=CCC1(CCN(C)C)c2ccccc2COc2ccccc21 (centres unmarked) [IMM] | 0/10 | 70 | 32 |
| C=CCCC1(CCN(C)C)c2ccccc2CCc2ccccc21 [INN] |  | 75 |  |
| CN(C)CCC1(C)c2ccccc2CCc2ccccc21 [IOO] |  | 16 |  |
| C=CCC1(CCN2CCCC2)c2ccccc2CCc2ccccc21 [IO] | 5/9 | 66 | 47 |
| C=CCC1(CCN(C)C)c2ccccc2CCc2ccc(Cl)cc21 (centres unmarked) [IPP] |  | 52 |  |
| CCCC1(CCN2CCCC2)c2ccccc2CCc2ccccc21 [IP] | 9/9 | 44 | 52 |
| CCCC1(CCN(C)C)c2ccccc2CCc2ccc(Cl)cc21 (centres unmarked) [IQQ] |  | 42 |  |
| C=CCC1(CCN2CCN(C)CC2)c2ccccc2CCc2ccccc21 [IQ] |  | 68 |  |
| ON=CCC1(CC2CC2)c2ccccc2CCc2ccccc21 [IRR] |  | 48 | 38 |
| C=CCC1(CCN(C)C(C)=O)c2ccccc2CCc2ccccc21 [IR] |  | 61 | 36 |
| CCCC1(CCC=NO)c2ccccc2CCc2ccccc21 [ITT] |  | 4 |  |
| CCOC1(CCN(C)C(=O)c2cc[n+]([O-])cc2)c2ccccc2CCc2ccccc21 [IT] | 9/9 | 14 |  |
| CCOC1(CCN(C)S(=O)(=O)c2ccccc2)c2ccccc2CCc2ccccc21 [IW] | 8/10 | 47 |  |
| CCOCC1(CN)c2ccccc2CCc2ccccc21 [IX] | 9/10 | 29 | 3 |
| CCOCC1(CNC(C)=O)c2ccccc2CCc2ccccc21 [IY] |  | 17 |  |
| CCOCC1(CN(C)C)c2ccccc2CCc2ccccc21 [IZ] | 8/10 | 37 | 0 |
